Results from patent US9902986B2, “Enterobactin conjugates and uses thereof” (Massachusetts Institute of Technology, priority 2013, dated 2018).

Test system: E. coli CFT073 in the presence of S. aureus 25923
Assay: Co-culture of E. coli CFT073 and S. aureus 25923
Assay type: cell-based, Escherichia coli
Details: co-culture in a 1:1 ratio
Source text: (FIG. 20A) Images showing three cultures untreated with any antibiotics: E. coli CFT073, S. aureus 25923, and E. coli CFT073 and S. aureus 25923 co-culture (in a 1:1 ratio). (FIG. 20B) Images showing co-cultures of E. coli CFT073 and S. aureus 25923 (in a 1:1 ratio), in the absence of any antibiotics or in the presence of Amp, Amx, Ent-Amp, or Ent-Amx.

SMILES | killing of E. coli CFT073 co-cultured with S. aureus 25923
CC1(C)SC2C(NC(=O)C(NC(=O)CCCc3cn(CCOCCOCCOCCNC(=O)c4cc(O)c(O)c(C(=O)NC5COC(=O)C(NC(=O)c6cccc(O)c6O)COC(=O)C(NC(=O)c6cccc(O)c6O)COC5=O)c4)nn3)c3ccccc3)C(=O)N2C1C(=O)O (stereo not drawn) [Ent-Amp] | killed E. coli CFT073
CC1(C)SC2C(NC(=O)C(NC(=O)CCCc3cn(CCOCCOCCOCCNC(=O)c4cc(O)c(O)c(C(=O)NC5COC(=O)C(NC(=O)c6cccc(O)c6O)COC(=O)C(NC(=O)c6cccc(O)c6O)COC5=O)c4)nn3)c3ccc(O)cc3)C(=O)N2C1C(=O)O (stereo not drawn) [Ent-Amx] | killed E. coli CFT073
